Experimental data: US9809542B2, “Spiroheterocyclically substituted tetramic acid derivatives” (BAYER INTELLECTUAL PROPERTY GMBH, priority 2010, dated 2017)

What was measured:
Type in all cases: in vivo
[1] = test system: caterpillars of the armyworm (Spodoptera frugiperda); experiment: Spodoptera frugiperda test (SPODFR spray treatment); details: application rate 500 g/ha, maize leaf discs, after 7 days
Protocol: Spodoptera frugiperda Test (SPODFR Spray Treatment)
(§1) Solvents: 78.0 parts by weight of acetone
(§2) • 1.5 parts by weight of dimethylformamide Emulsifier: 0.5 part by weight of alkylaryl polyglycol ether
To produce a suitable preparation of active compound, 1 part by weight of active compound is mixed with the stated amounts of solvents and emulsifier, and the concentrate is diluted with emulsifier-containing water to the desired concentration. Discs of maize leaves (Zea mays) are sprayed with an active compound preparation of the desired concentration and, after drying, populated with caterpillars of the armyworm (Spodoptera frugiperda).
After 7 days, the effect in % is determined. 100% means that all caterpillars have been killed; 0% means that none of the caterpillars have been killed.

Setaria viridis = experiment: Herbicidal pre-emergence action; details: pre-emergence method, 320 g of a.i./ha; about 3 weeks
Source text: (§3) 1. Herbicidal Pre-Emergence Action
(§4) • Seeds of monocotyledonous and dicotyledonous weed and crop plants are placed in sandy loam in wood fibre pots and covered with soil. The test compounds, formulated in the form of wettable powders (WP), are then, as aqueous suspension with a water application rate of 600 l/ha (converted), with 0.2% of wetting agent added, applied to the surface of the covering soil in various dosages. • After the treatment, the pots are placed in a greenhouse and kept under good growth conditions for the test plants. The visual assessment of the emergence damage on the test plants is carried out after a trial period of about 3 weeks by comparison with untreated controls (herbicidal effect in %: 100% effect=the plants have died, 0% effect=like control plants). • In addition to the compounds mentioned above, the following compounds, applied by the pre-emergence method at 320 g of a.i./ha, show an efficacy of 90% against Lolium multiflorum and Setaria viridis: I-1-a-1 • In addition to the compounds mentioned above, the following compounds, applied by the pre-emergence method at 320 g of a.i./ha, show an efficacy of 100% against Echinocloa crus-galli: I-a-2, I-b-1, I-b-2, I-c-2 2. Herbicidal Post-Emergence Action • Seeds of monocotyledonous and dicotyledonous weed and crop plants are placed in sandy loam in wood fibre pots, covered with soil and cultivated in a greenhouse under good growth conditions. 2-3 weeks after sowing, the test plants are treated at the one-leaf stage. The test compounds, formulated as wettable powders (WP), are, in various dosages at a water application rate of 600 l/ha (converted), with 0.2% of wetting agent added, sprayed onto the green parts of the plants. After the test plants have been kept in the greenhouse under optimum growth conditions for about 3 weeks, the effect of the preparations is rated visually in comparison to untreated controls (herbicidal effect in %: 100% effect=the plants have died, 0% effect=like control plants). • In addition to the compounds mentioned above, the following compounds, applied by the post-emergence method at 80 g/ha, show an efficacy of 90% against Echinocloa crus-galli and Lolium multiflorum: I-a-3, I-a-4, I-a-5.

Lolium multiflorum = experiment: Herbicidal pre-emergence action; details: pre-emergence method, 320 g of a.i./ha; about 3 weeks
Source text: as §3, §4

Lucilia cuprina larva = experiment: Lucilia cuprina test (LUCICU); details: application rate 100 ppm; treated horse meat; after 2 days
Protocol: Lucilia cuprina Test (LUCICU)
Solvent: Dimethyl sulphoxide
To produce a suitable preparation of active compound, 10 mg of active compound are mixed with 0.5 ml of dimethyl sulphoxide and the concentrate is diluted with water to the desired concentration. Containers containing horse meat treated with the active compound preparation of the desired concentration are populated with about 20 Lucilia cuprina larva.
After 2 days, the kill in % is determined. 100% means that all larva have been killed; 0% means that none of the larva have been killed.

[2] = test system: greenhouse red spidermite (Tetranychus urticae); experiment: Tetranychus test OP-resistant (TETRUR spray treatment); details: application rate 100 g/ha, bean leaf discs, after 6 days
Protocol: Tetranychus Test OP-Resistant (TETRUR Spray Treatment)
as §1, §2
To produce a suitable preparation of active compound, 1 part by weight of active compound is mixed with the stated amounts of solvents and emulsifier, and the concentrate is diluted with emulsifier-containing water to the desired concentration. Discs of bean leaves (Phaseolus vulgaris) which are infested by all stages of the greenhouse red spidermite (Tetranychus urticae) are sprayed with an active compound preparation of the desired concentration.
After 6 days, the effect in % is determined. 100% means that all spidermites have been killed; 0% means that none of the spidermites have been killed.

Echinocloa crus-galli = experiment: Herbicidal pre-emergence action; details: pre-emergence method, 320 g of a.i./ha; about 3 weeks
Source text: as §3, §4

Row | Compound | efficacy (effect in %, caterpillars killed) [1] | efficacy (herbicidal effect in %) (Setaria viridis) | efficacy (herbicidal effect in %) (Lolium multiflorum) | efficacy (kill in %) (Lucilia cuprina larva) | efficacy (effect in %, spidermites killed) [2] | efficacy (herbicidal effect in %) (Echinocloa crus-galli)
1 | CON1CCC2(CC1)NC(=O)C(c1c(C)ccc(-c3ccc(F)cc3)c1C)=C2O [I-a-1] | 83% | 90% | 90% | 90% | – | –
2 | CCON1CCC2(CC1)NC(=O)C(c1c(C)ccc(-c3ccc(F)cc3)c1C)=C2O [I-a-2] | 100% | – | – | 90% | 100% | 100%
